The values that follow come from ChEMBL document CHEMBL5241054, “Effective anti-aromatase therapy to battle against estrogen-mediated breast cancer: Comparative SAR/QSAR assessment on steroidal aromatase inhibitors” (Eur J Med Chem, 2020).

This experiment has as its target T1, Aromatase (Homo sapiens, UniProt P11511).
T1 sequence (P11511 whole entry): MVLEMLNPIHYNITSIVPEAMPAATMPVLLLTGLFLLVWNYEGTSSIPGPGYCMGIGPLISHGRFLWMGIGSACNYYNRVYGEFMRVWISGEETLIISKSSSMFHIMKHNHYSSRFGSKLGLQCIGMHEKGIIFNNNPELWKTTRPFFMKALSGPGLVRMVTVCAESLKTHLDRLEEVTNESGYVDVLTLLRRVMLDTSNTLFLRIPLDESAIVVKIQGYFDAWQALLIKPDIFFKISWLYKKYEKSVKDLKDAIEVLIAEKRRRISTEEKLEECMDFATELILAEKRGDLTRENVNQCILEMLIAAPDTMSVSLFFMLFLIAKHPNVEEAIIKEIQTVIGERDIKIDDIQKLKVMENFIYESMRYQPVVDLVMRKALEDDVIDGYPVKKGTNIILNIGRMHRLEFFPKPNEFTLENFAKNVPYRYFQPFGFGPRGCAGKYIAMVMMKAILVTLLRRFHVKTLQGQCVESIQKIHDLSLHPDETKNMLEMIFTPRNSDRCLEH
`C[C@]12CCCC[C@@H]1CC[C@@H]1[C@@H]2CC[C@]2(C)C(=O)CC[C@@H]12`: the IC50 was 2300 nM.
`CO[C@@H]1C[C@@H]2[C@H](CC[C@]3(C)C(=O)CC[C@@H]23)[C@@]2(C)C=CC(=O)C=C12` gave an IC50 of 619 nM. Against the preceding compound, the IC50 is about 3.7-fold lower.
Then `CCO[C@@H]1C[C@@H]2[C@H](CC[C@]3(C)C(=O)CC[C@@H]23)[C@@]2(C)C=CC(=O)C=C12`, with 560 nM; and `C[C@]12CCC(=O)C=C1[C@@H](OCc1ccccc1)C[C@@H]1[C@@H]2CC[C@]2(C)C(=O)CC[C@@H]12`, with 2500 nM; and `C[C@]12C=CC(=O)C=C1C=C(c1ccccc1)[C@@H]1[C@@H]2CC[C@]2(C)C(=O)CC[C@@H]12`, with 2220 nM.
Then `C[C@]12C=CC(=O)C=C1[C@@H](OCc1ccccc1)C[C@@H]1[C@@H]2CC[C@]2(C)C(=O)CC[C@@H]12`, with 1900 nM; and `C[C@]12C=CC(=O)C=C1[C@H](OCc1ccccc1)C[C@@H]1[C@@H]2CC[C@]2(C)C(=O)CC[C@@H]12`, with 150 nM.
Then `CC(=O)O[C@H]1C[C@@H]2[C@H](CC[C@]3(C)C(=O)CC[C@@H]23)[C@@]2(C)C=CC(=O)C=C12`, with 1100 nM; and `CCOC1=C[C@@H]2[C@H](CC[C@]3(C)C(=O)CC[C@@H]23)[C@@]2(C)CCC(=O)C=C12`, with 750 nM; and `CCCO[C@H]1C[C@@H]2[C@H](CC[C@]3(C)C(=O)CC[C@@H]23)[C@@]2(C)CCC(=O)C=C12`, with 1300 nM.
The compound `C[C@]12CC[C@@H]3C4CCC(=O)C=C4C(=O)C[C@H]3[C@@H]1CCC2=O` (stereo not given in full) showed an IC50 of 12000 nM. Compared with the last compound, the IC50 is about 9.2-fold higher.
Then `CO[C@@H]1C[C@@H]2[C@H](CC[C@]3(C)C(=O)CC[C@@H]23)[C@@]2(C)CCC(=O)C=C12`, with 170 nM.
Then `COC1=C[C@@H]2[C@H](CC[C@]3(C)C(=O)CC[C@@H]23)[C@@]2(C)C=CC(=O)C=C12`, with 800 nM; and `CCO[C@@H]1C[C@@H]2[C@H](CC[C@]3(C)C(=O)CC[C@@H]23)[C@@]2(C)CCC(=O)C=C12`, with 500 nM; and `C[C@]12C=CC(=O)C=C1[C@H](Oc1ccccc1)C[C@@H]1[C@@H]2CC[C@]2(C)C(=O)CC[C@@H]12`, with 16000 nM.
Then `C[C@]12CC[C@@H]3C4CCC(=O)C=C4CC[C@H]3[C@@H]1CCC2=O` (stereo not given in full), with 1200 nM; and `CCO[C@H]1C[C@@H]2[C@H](CC[C@]3(C)C(=O)CC[C@@H]23)[C@@]2(C)CCC(=O)C=C12`, with 1400 nM.
Compound `CO[C@H]1C[C@@H]2[C@H](CC[C@]3(C)C(=O)CC[C@@H]23)[C@@]2(C)CCC(=O)C=C12` showed an IC50 of 540 nM. This IC50 lies about 2.6-fold lower than the previous one.
For `CCCCC(=O)O[C@@H]1C[C@@H]2[C@H](CC[C@]3(C)C(=O)CC[C@@H]23)[C@@]2(C)CCC(=O)C=C12`, the IC50 was 1500 nM.
In the case of `CCCCCC(=O)O[C@@H]1C[C@@H]2[C@H](CC[C@]3(C)C(=O)CC[C@@H]23)[C@@]2(C)CCC(=O)C=C12`, the half-maximal inhibitory concentration (IC50) was 530 nM.
Then `COc1ccc(/C=C2/C[C@H]3[C@@H]4CC[C@H]5C[C@@H](O)CC[C@]5(C)[C@H]4CC[C@]3(C)C2=O)cc1`, with 7130 nM; and `CCCCO[C@H]1C[C@@H]2[C@H](CC[C@]3(C)C(=O)CC[C@@H]23)[C@@]2(C)C=CC(=O)C=C12`, with 661 nM; and `CCO[C@H]1C[C@@H]2[C@H](CC[C@]3(C)C(=O)CC[C@@H]23)[C@@]2(C)C=CC(=O)C=C12`, with 1500 nM.
Regarding `CCCCCCCC(=O)O[C@@H]1C[C@@H]2[C@H](CC[C@]3(C)C(=O)CC[C@@H]23)[C@@]2(C)CCC(=O)C=C12`, 1500 nM corresponded to half-maximal inhibition (IC50).
Then `CCOC1=C[C@@H]2[C@H](CC[C@]3(C)C(=O)CC[C@@H]23)[C@@]2(C)C=CC(=O)C=C12`, with 951 nM; and `COC1=C[C@@H]2[C@H](CC[C@]3(C)C(=O)CC[C@@H]23)[C@@]2(C)CCC(=O)C=C12`, with 700 nM; and `CCCO[C@@H]1C[C@@H]2[C@H](CC[C@]3(C)C(=O)CC[C@@H]23)[C@@]2(C)CCC(=O)C=C12`, with 550 nM.
Then `C[C@]12CCC(=O)C=C1[C@H](OCc1ccccc1)C[C@@H]1[C@@H]2CC[C@]2(C)C(=O)CC[C@@H]12`, with 84.9 nM.
Compound `C[C@]12CCC(=O)C=C1[C@H](Oc1ccccc1)C[C@@H]1[C@@H]2CC[C@]2(C)C(=O)CC[C@@H]12` showed an IC50 of 23000 nM. Compared with the last compound, the IC50 is about 270-fold higher.
For `CC(=O)O[C@@H]1C[C@@H]2[C@H](CC[C@]3(C)C(=O)CC[C@@H]23)[C@@]2(C)CCC(=O)C=C12`, the IC50 is 20000 nM.
With `CCCCO[C@@H]1C[C@@H]2[C@H](CC[C@]3(C)C(=O)CC[C@@H]23)[C@@]2(C)C=CC(=O)C=C12`, half-maximal inhibition (IC50) required 460 nM.
As for `CC(=O)O[C@@H]1C[C@@H]2[C@H](CC[C@]3(C)C(=O)CC[C@@H]23)[C@@]2(C)C=CC(=O)C=C12`, it took 5000 nM to reach half-maximal inhibition (IC50).
Then `CCCC(=O)O[C@@H]1C[C@@H]2[C@H](CC[C@]3(C)C(=O)CC[C@@H]23)[C@@]2(C)CCC(=O)C=C12`, with 2700 nM; and `C[C@]12CC[C@H](OC(=O)C(F)(F)F)C[C@@H]1CC[C@@H]1[C@@H]2CC[C@]2(C)C(=O)/C(=C\c3ccccc3)C[C@@H]12`, with 7110 nM; and `C[C@]12C=CC(=O)C=C1C[C@H](c1ccc(N)cc1)[C@@H]1[C@@H]2CC[C@]2(C)C(=O)CC[C@@H]12`, with 9.91 nM.
Then `CCCCCC(=O)O[C@H]1C[C@@H]2[C@H](CC[C@]3(C)C(=O)CC[C@@H]23)[C@@]2(C)C=CC(=O)C=C12`, with 210 nM.
Then `CCCCCCC(=O)O[C@@H]1C[C@@H]2[C@H](CC[C@]3(C)C(=O)CC[C@@H]23)[C@@]2(C)CCC(=O)C=C12`, with 1500 nM; and `CCC(=O)O[C@@H]1C[C@@H]2[C@H](CC[C@]3(C)C(=O)CC[C@@H]23)[C@@]2(C)CCC(=O)C=C12`, with 2200 nM.
Compound `C[C@]12C=CC(=O)C=C1[C@@H](Oc1ccccc1)C[C@@H]1[C@@H]2CC[C@]2(C)C(=O)CC[C@@H]12` showed a half-maximal inhibitory concentration (IC50) of 530 nM.
Then `CO[C@H]1C[C@@H]2[C@H](CC[C@]3(C)C(=O)CC[C@@H]23)[C@@]2(C)C=CC(=O)C=C12`, with 440 nM; and `CCCCO[C@H]1C[C@@H]2[C@H](CC[C@]3(C)C(=O)CC[C@@H]23)[C@@]2(C)CCC(=O)C=C12`, with 780 nM; and `CCCCCC(=O)O[C@@H]1C[C@@H]2[C@H](CC[C@]3(C)C(=O)CC[C@@H]23)[C@@]2(C)C=CC(=O)C=C12`, with 1800 nM.
In turn, `C[C@]12CCC(=O)C[C@@H]1C(=O)C[C@@H]1[C@@H]2CC[C@]2(C)C(=O)CC[C@@H]12` showed a 50% inhibitory concentration (IC50) of 4000 nM.
Then `CCCCO[C@@H]1C[C@@H]2[C@H](CC[C@]3(C)C(=O)CC[C@@H]23)[C@@]2(C)CCC(=O)C=C12`, with 420 nM.
Then `COc1ccc(/C=C2/C[C@H]3[C@@H]4CC[C@H]5C[C@@H](OC(=O)C(F)(F)F)CC[C@]5(C)[C@H]4CC[C@]3(C)C2=O)cc1`, with 7000 nM.
